The text below walks through data of ChEMBL document CHEMBL1144986, “Binding of beta-carbolines at 5-HT(2) serotonin receptors” (Bioorg Med Chem Lett, 2003).

The Ki is the dissociation constant of the complex between target and ligand, obtained from inhibition or displacement. A lower Ki goes with a stronger hold on the target.

For experiment [1], the target named is T1, 5-hydroxytryptamine receptor 2C (Rattus norvegicus, UniProt P08909).
T1 sequence (P08909 whole entry): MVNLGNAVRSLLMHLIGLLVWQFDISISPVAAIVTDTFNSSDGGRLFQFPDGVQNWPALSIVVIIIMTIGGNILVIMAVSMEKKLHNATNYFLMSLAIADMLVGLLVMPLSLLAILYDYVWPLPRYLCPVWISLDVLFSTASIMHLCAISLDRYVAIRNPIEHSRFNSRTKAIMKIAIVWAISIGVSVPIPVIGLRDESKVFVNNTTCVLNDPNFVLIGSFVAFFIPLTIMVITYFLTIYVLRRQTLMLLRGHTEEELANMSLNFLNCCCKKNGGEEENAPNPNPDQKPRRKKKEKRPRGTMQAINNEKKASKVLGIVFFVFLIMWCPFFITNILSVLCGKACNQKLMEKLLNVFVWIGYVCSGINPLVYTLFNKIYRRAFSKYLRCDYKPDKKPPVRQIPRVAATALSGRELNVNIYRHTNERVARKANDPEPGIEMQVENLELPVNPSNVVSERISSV
Briefly: Binding affinity towards cloned rat 5-hydroxytryptamine 2C receptor from fundus tissue by [3H]mesulergine displacement.

The target of experiment [2] is T2, 5-hydroxytryptamine receptor 2A (Rattus norvegicus, UniProt P14842). Briefly: Binding affinity for rat 5-hydroxytryptamine 2A receptor using [3H]DOB.
T2 sequence (P14842 whole entry): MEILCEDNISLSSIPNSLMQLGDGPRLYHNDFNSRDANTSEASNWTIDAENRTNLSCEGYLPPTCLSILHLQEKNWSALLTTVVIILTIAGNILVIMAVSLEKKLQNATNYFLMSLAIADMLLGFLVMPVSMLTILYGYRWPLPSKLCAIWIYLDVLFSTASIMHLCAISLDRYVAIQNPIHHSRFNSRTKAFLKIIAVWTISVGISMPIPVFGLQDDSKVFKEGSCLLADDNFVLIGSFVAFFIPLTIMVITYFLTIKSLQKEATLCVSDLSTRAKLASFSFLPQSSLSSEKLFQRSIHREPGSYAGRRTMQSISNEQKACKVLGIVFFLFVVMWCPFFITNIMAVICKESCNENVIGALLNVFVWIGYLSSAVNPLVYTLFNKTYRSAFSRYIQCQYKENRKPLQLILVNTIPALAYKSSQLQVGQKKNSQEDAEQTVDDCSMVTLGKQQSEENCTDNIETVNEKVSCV
Experiment [3] has as its target T2, 5-hydroxytryptamine receptor 2A. Kind of experiment: Binding affinity towards cloned rat 5-hydroxytryptamine 2A receptor by [3H]ketanserin displacement.
For experiment [4], the target named is Alpha-1B adrenergic receptor (Homo sapiens, UniProt P35368). Kind of experiment: Binding affinity towards Alpha-1B adrenergic receptor.
The target of experiment [5] is 5-hydroxytryptamine receptor 1D (Homo sapiens, UniProt P28221). Kind of experiment: Binding affinity towards 5-hydroxytryptamine 1D receptor.
5-hydroxytryptamine receptor 1D, sequence (P28221 whole entry): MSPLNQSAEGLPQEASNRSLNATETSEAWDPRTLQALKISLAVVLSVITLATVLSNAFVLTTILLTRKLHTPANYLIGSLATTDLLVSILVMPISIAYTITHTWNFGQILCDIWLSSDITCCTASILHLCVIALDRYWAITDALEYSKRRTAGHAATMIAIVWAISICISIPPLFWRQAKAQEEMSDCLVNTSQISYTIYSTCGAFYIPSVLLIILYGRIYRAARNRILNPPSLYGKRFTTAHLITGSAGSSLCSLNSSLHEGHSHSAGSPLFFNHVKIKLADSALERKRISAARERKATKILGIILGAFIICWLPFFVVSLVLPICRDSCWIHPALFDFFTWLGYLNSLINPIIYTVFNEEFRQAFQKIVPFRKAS
Experiment [6] has as its target T3, 5-hydroxytryptamine receptor 1A (Homo sapiens, UniProt P08908).
T3 sequence (P08908 whole entry): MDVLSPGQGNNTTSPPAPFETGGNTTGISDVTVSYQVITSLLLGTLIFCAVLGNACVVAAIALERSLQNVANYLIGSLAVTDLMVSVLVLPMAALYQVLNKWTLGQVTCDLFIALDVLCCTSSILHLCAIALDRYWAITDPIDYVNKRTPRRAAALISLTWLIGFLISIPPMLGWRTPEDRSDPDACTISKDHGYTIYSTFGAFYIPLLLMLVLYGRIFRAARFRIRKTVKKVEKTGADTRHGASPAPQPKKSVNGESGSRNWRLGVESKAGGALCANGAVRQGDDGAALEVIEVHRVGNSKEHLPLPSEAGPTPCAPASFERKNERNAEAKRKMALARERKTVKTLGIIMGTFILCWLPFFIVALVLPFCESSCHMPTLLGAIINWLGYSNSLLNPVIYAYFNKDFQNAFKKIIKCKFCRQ
Briefly: Binding affinity towards 5-hydroxytryptamine 1A receptor.

Experiment [7] has as its target Muscarinic acetylcholine receptor. Briefly: Binding affinity towards Muscarinic acetylcholine receptor. The class given is protein assay.
Experiment [8] addresses Dopamine receptor. Briefly: Binding affinity towards Dopamine receptor. The class given is protein assay.
The target in experiment [9] is Alpha-1A adrenergic receptor (Homo sapiens, UniProt P35348). Kind of experiment: Binding affinity towards Alpha-1A adrenergic receptor.
Experiment [10] deals with T4, 5-hydroxytryptamine receptor 2C (Homo sapiens, UniProt P28335).
T4 sequence (P28335 whole entry): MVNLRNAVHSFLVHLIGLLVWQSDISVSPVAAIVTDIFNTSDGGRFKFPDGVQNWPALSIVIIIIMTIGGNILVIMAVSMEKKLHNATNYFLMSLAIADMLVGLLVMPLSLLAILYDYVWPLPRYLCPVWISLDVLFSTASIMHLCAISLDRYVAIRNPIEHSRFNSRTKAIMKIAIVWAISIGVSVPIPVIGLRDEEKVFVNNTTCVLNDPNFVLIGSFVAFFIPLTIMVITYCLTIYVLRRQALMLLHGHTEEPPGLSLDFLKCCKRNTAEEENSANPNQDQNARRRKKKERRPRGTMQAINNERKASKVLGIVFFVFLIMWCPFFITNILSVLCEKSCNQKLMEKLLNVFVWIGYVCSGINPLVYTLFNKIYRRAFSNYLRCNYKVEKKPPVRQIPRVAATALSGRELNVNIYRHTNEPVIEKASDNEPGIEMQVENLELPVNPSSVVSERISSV
Briefly: Binding affinity towards 5-hydroxytryptamine 2C receptor.

The target in experiment [11] is Serotonin 3 (5-HT3) receptor. Briefly: Binding affinity towards 5-HT3 receptor. The class given is protein-complex assay.
Experiment [12] concerns the target Alpha-2B adrenergic receptor (Homo sapiens, UniProt P18089). Kind of experiment: Binding affinity towards Alpha-2B adrenergic receptor.
For experiment [13], the target named is Beta-1 adrenergic receptor (Homo sapiens, UniProt P08588). Kind of experiment: Binding affinity towards Beta-1A adrenergic receptor.
The target in experiment [14] is 5-hydroxytryptamine receptor 1B (Homo sapiens, UniProt P28222). Briefly: Binding affinity towards 5-hydroxytryptamine 1B receptor.
5-hydroxytryptamine receptor 1B, sequence (P28222 whole entry): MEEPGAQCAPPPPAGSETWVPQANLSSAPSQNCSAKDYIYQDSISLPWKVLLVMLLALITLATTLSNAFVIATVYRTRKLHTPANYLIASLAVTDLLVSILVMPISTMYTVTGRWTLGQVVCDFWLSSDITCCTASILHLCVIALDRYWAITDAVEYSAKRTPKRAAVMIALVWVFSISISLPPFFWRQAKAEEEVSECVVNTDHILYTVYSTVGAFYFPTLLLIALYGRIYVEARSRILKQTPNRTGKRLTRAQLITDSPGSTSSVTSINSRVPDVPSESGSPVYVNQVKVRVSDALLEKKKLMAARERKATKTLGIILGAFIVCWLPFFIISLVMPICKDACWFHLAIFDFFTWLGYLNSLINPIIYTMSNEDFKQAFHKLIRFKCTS
Experiment [15] addresses Alpha-2A adrenergic receptor (Homo sapiens, UniProt P08913). Briefly: Binding affinity towards alpha-2A-Adrenergic receptor.
Experiment [16] has as its target 5-hydroxytryptamine receptor 6 (Homo sapiens, UniProt P50406). Briefly: Binding affinity towards human 5-hydroxytryptamine 6 receptor.
In experiment [17] the target is 5-hydroxytryptamine receptor 7 (Homo sapiens, UniProt P34969). Kind of experiment: Binding affinity towards 5-hydroxytryptamine 7 receptor.
5-hydroxytryptamine receptor 7, sequence (P34969 whole entry): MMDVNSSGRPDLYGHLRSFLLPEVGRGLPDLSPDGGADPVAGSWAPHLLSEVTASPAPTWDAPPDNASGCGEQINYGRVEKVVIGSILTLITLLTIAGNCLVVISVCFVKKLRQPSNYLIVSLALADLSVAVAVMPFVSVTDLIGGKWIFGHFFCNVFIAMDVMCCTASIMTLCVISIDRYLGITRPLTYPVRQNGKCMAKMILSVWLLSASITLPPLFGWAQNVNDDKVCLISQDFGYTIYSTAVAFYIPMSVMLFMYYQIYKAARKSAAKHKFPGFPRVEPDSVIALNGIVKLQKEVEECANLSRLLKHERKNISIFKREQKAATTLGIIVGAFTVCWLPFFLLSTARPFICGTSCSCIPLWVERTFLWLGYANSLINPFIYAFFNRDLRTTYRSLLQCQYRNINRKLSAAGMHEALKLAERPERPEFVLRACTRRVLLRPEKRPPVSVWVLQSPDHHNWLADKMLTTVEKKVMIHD
The target in experiment [18] is 5-hydroxytryptamine receptor 5A (Homo sapiens, UniProt P47898). Briefly: Binding affinity towards 5-HT5A receptor.
5-hydroxytryptamine receptor 5A, sequence (P47898 whole entry): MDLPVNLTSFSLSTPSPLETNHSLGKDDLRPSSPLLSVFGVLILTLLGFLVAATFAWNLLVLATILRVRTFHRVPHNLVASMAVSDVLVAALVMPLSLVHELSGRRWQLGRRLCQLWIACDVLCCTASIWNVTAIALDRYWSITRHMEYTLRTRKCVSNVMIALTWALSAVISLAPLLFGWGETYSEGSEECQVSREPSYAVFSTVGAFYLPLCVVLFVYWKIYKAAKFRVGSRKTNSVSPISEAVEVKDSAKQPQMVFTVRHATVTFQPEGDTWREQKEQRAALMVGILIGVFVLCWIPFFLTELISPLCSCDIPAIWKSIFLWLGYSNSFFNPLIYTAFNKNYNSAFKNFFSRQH
In experiment [19] the target is Alpha-2C adrenergic receptor (Homo sapiens, UniProt P18825). Kind of experiment: Binding affinity towards Alpha-2C adrenergic receptor.
Experiment [20] addresses Sodium-dependent noradrenaline transporter (Homo sapiens, UniProt P23975). Briefly: Binding affinity towards NET.
The target in experiment [21] is Beta-2 adrenergic receptor (Homo sapiens, UniProt P07550). Briefly: Binding affinity towards Beta-2A adrenergic receptor.
Beta-2 adrenergic receptor, sequence (P07550 whole entry): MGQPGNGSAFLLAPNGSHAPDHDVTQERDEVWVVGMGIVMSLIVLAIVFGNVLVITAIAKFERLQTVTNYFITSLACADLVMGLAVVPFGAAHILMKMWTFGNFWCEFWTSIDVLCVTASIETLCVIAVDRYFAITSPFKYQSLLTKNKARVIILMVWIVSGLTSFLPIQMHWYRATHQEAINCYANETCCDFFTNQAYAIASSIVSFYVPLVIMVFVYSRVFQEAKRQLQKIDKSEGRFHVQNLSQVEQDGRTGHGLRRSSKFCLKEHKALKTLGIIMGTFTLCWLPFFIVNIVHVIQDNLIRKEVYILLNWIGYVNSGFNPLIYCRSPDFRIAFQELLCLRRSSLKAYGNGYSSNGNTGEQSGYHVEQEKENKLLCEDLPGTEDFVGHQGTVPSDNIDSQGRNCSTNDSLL
For experiment [22], the target named is GABA-A receptor; anion channel. Kind of experiment: Binding affinity towards GABA-A benzodiazepine receptor. The class given is protein-complex assay, Rattus norvegicus.
The target of experiment [23] is Sodium-dependent serotonin transporter (Homo sapiens, UniProt P31645). Briefly: Binding affinity towards Serotonin transporter.
Sodium-dependent serotonin transporter, sequence (P31645 whole entry): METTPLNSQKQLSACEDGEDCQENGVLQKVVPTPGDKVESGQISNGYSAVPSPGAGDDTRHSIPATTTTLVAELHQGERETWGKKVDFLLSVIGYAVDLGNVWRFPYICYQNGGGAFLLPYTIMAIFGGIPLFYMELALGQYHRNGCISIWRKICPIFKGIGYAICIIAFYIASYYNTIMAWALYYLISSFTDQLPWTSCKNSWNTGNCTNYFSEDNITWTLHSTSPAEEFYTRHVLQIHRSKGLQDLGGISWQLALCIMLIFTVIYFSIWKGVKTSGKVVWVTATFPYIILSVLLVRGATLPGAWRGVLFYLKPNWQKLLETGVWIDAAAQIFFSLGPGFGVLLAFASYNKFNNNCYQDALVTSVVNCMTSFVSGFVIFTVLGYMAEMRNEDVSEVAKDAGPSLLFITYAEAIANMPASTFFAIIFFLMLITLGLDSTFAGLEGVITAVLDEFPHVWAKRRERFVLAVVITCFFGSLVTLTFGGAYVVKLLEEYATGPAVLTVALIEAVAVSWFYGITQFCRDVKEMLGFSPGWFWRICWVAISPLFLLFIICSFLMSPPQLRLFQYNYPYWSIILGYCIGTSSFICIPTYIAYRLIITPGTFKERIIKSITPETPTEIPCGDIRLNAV
Experiment [24] addresses T2, 5-hydroxytryptamine receptor 2A. Kind of experiment: Binding affinity towards 5-hydroxytryptamine 2A receptor.
Experiment [25] has as its target Sodium-dependent dopamine transporter (Bos taurus, UniProt P27922). Briefly: Binding affinity towards DAT (bovine).
The target of experiment [26] is Muscarinic acetylcholine receptor. Briefly: Binding affinity towards Muscarinic receptor. The class given is protein assay.
Experiment [27] has as its target T2, 5-hydroxytryptamine receptor 2A. Kind of experiment: Binding affinity towards cloned rat Inhibition of binding towards 5-hydroxytryptamine 2A receptor at 100 nM concentration was determined using [3H]ketanserin as radioligand.
Experiment [28] shares this target. Kind of experiment: Binding affinity towards cloned rat Inhibition of binding towards 5-hydroxytryptamine 2A receptor at 100 nM concentration was determined using [3H]DOB as radioligand.
Experiment [29] has the same target. Kind of experiment: Binding affinity towards cloned rat 5-hydroxytryptamine 2A receptor from fundus tissue was determined using [3H]mesulergine as radioligand.

Sodium-dependent noradrenaline transporter, sequence (P23975 whole entry): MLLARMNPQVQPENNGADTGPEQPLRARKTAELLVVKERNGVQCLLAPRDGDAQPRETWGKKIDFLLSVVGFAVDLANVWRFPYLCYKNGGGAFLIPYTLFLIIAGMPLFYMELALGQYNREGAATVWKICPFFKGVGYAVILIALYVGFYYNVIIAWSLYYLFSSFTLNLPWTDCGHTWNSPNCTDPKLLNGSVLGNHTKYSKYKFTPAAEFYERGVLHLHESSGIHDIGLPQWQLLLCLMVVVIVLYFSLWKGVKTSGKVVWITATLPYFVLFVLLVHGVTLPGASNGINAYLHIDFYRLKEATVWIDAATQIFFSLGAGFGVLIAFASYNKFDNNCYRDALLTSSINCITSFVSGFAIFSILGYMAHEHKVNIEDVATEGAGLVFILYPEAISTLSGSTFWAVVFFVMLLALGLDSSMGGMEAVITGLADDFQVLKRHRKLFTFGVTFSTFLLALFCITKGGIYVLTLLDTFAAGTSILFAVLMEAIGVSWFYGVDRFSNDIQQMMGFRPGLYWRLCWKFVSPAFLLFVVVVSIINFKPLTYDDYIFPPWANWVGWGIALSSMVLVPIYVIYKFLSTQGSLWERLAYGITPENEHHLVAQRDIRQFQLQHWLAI
Sodium-dependent dopamine transporter, sequence (P27922 whole entry): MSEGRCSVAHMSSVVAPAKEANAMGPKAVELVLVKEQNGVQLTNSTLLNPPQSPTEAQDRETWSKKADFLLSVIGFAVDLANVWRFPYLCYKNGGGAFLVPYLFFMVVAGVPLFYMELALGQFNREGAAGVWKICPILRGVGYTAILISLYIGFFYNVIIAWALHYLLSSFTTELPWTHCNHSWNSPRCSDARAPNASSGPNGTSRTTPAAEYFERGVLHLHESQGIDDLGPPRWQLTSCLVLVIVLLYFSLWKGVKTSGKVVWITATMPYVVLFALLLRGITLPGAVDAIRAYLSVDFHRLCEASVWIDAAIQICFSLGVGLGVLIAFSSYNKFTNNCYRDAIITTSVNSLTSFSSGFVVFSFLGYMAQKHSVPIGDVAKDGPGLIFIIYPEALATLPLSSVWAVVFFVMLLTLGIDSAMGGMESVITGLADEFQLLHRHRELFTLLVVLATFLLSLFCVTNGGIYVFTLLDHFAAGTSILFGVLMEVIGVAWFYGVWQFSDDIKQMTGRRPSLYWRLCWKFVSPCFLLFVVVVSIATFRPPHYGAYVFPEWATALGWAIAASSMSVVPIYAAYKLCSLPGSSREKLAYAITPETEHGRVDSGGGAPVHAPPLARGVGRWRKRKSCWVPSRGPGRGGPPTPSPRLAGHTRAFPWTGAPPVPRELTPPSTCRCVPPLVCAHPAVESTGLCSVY
5-hydroxytryptamine receptor 6, sequence (P50406 whole entry): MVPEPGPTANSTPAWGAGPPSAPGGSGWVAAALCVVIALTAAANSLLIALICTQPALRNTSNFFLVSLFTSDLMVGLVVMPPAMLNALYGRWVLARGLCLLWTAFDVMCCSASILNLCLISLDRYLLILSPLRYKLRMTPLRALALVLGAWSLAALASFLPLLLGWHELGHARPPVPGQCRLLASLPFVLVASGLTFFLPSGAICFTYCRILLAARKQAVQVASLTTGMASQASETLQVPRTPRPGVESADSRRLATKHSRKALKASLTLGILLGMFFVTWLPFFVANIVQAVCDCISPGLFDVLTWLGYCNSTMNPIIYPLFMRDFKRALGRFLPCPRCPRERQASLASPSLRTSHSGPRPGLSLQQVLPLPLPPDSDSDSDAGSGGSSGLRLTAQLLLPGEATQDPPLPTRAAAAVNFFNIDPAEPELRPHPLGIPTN

With `c1ccc2c3c([nH]c2c1)CNCC3` [TRYPTOLINE], the Ki in [1] is more than 10 µM; in [2] it was 3 µM; in [3], 3.8 µM.
On to `Brc1cccc2[nH]c3c(c12)CCN=C3`, for which the inhibitory constant (Ki) worked out at 0.14 µM in [1] and 0.39 µM in experiment [3].
For `COc1ccc2c3c([nH]c2c1)C=NCC3` [CGS-19281A], the Ki in experiment [1], in [2] and in experiment [3] was more than 10 µM throughout.
Turning to `COc1ccc2c(c1)[nH]c1c(C)nccc12` [HARMINE], the Ki in experiment [4], in experiment [5], in [6], in experiment [7], in [8] and in [9] was more than 10 µM throughout. The inhibitory constant (Ki) in experiment [10] was 9.34 µM; in [11], more than 10 µM; in experiment [12] it was 1.13 µM; in experiment [13], more than 10 µM; in [14], more than 10 µM; in experiment [15], 2.54 µM. For the same compound, the Ki was 1.48 µM in experiment [16]; 5.5 µM in experiment [17]; more than 10 µM in [18]; 0.81 µM in [19]; 3.26 µM in experiment [20]; more than 10 µM in experiment [21]. Further, the inhibitory constant (Ki) in experiment [22] is more than 10 µM; in [23], more than 10 µM; in experiment [24], 7.79 µM; in [25], more than 10 µM.
On to `COc1ccc2[nH]c3c(c2c1)CCN=C3`, for which the Ki was found to be 1.17 µM in experiment [1] and 2.37 µM in experiment [3].
For the compound `COc1ccc2[nH]c3c(c2c1)CCNC3`, the Ki in experiment [1] worked out at 2.19 µM; in [2], 1.4 µM; in experiment [3], 4.78 µM.
Turning to `C1=NCCc2c1[nH]c1cccc(OCc3ccccc3)c21`, the Ki was 0.2 µM in experiment [1] and 0.124 µM in experiment [3].
With `Brc1ccc2c3c([nH]c2c1)CNCC3`, the results for the Ki in [1] and in [3] were 0.25 µM and 0.24 µM, respectively.
In the case of `Brc1ccc2c3c([nH]c2c1)C=NCC3`, the Ki in experiment [1] was found to be 2.1 µM; in experiment [3], 1.33 µM.
Regarding `Brc1cccc2[nH]c3c(c12)CCNC3`, the figures for the inhibition constant Ki in experiment [1], in experiment [2] and in [3] were 0.13 µM, 0.08 µM and 0.18 µM, respectively.
With `COc1ccc2c3c([nH]c2c1)CNCC3`, the Ki in [4], in [5], in experiment [6], in experiment [9], in [1] and in experiment [10] was more than 10 µM throughout. For the same compound, the Ki in [11] was more than 10 µM; in experiment [12], 0.14 µM; in [13] it was more than 10 µM; in experiment [14], more than 10 µM; in [15], 1.37 µM; in experiment [16], more than 10 µM. The inhibition constant Ki in experiment [17] was 1.4 µM; in experiment [2], 2.2 µM; in [18], more than 10 µM; in experiment [3], 4.62 µM; in experiment [19], 1.74 µM; in experiment [21], more than 10 µM. The inhibition constant (Ki) in [26] was more than 10 µM; in [23] it was more than 10 µM; in [24], 4.62 µM.
As for `Brc1ccc2[nH]c3c(c2c1)CCNC3`, the Ki in experiment [1] is 0.21 µM; in experiment [3], 0.5 µM.
On to `CC1=NCCc2c1[nH]c1cccc(OC(C)C)c21`, for which the Ki in experiment [1] is 0.026 µM; in [3], 0.47 µM.
For `Brc1cccc2c3c([nH]c12)C=NCC3`, the results for the Ki in [1], in [2] and in experiment [3] were 0.14 µM, 0.115 µM and 0.11 µM, respectively.
On to `COc1cccc2c3c([nH]c12)CNCC3`, for which the inhibitory constant (Ki) in experiment [1] turned out to be 1.27 µM; in experiment [2], 0.4 µM; in experiment [3] it was 0.64 µM.
Take `CC1=NCCc2c1[nH]c1ccccc21`: the inhibitory constant (Ki) in experiment [5] is more than 10 µM; in [6], more than 1.67 µM; in experiment [7] it was more than 10 µM; in [8] it was more than 10 µM; in experiment [10], 1.86 µM; in [11], more than 10 µM. For the same compound, the Ki in experiment [14] is more than 10 µM; in experiment [16] it was 1.45 µM; in [17], 0.28 µM; in experiment [18], 0.845 µM; in experiment [20], more than 10 µM; in experiment [22], more than 10 µM. Besides, the results for the Ki in experiment [23], in experiment [24] and in [25] were more than 10 µM, 1.15 µM and more than 10 µM, respectively.
Turning to `COc1cccc2c3c([nH]c12)C=NCC3`, the figures for the inhibitory constant (Ki) in [1], in experiment [2] and in experiment [3] were 1.35 µM, 2.55 µM and 3.24 µM, respectively.
On the same counts, the results for `COc1cccc2[nH]c3c(c12)CCN=C3` are 0.075 µM, 0.5 µM and 0.47 µM.
On the same counts, the results for `Brc1cccc2c3c([nH]c12)CNCC3` are 0.048 µM, 0.021 µM and 0.022 µM.
With `COc1cccc2[nH]c3c(c12)CCNC3`, the figures for the Ki in experiment [1], in experiment [2] and in experiment [3] were 0.14 µM, 0.075 µM and 0.13 µM, respectively.
Consider `COc1ccc2[nH]c3c(c2c1)CCN=C3C`, for which the Ki in [5] was more than 10 µM; in experiment [6], more than 10 µM; in experiment [7], more than 10 µM; in [8], more than 10 µM; in experiment [10], 0.924 µM; in experiment [11], more than 10 µM. Further, the Ki in experiment [14] was more than 10 µM; in experiment [16], 1.93 µM; in [17], 2.96 µM; in experiment [18], more than 10 µM; in experiment [20], more than 4.1 µM; in experiment [22] it was more than 10 µM. Besides, the Ki in [23] is more than 10 µM; in [24], 5.6 µM; in experiment [25], more than 10 µM.
For the compound `C1=NCCc2c1[nH]c1ccccc21`, the Ki in [27] is 2.56 µM; in experiment [28], 2.15 µM; in experiment [1] it was 1.1 µM.
`CC(C)Oc1cccc2[nH]c3c(c12)CCN=C3` returned a Ki in experiment [29] of 1.41 µM.
As for `Brc1ccc2[nH]c3c(c2c1)CCN=C3`, the results for the Ki in [1] and in experiment [3] were 1.2 µM and 1.72 µM, respectively.
